# Assay results: patent publication US20040234972A1, “Method for identifying and purifying smooth muscle progenitor cells” (priority 2001, published 2004)
# Assays:
# A404 cells = assay: RA-induced SMC differentiation of A404 cells, immunocytochemical staining; format: cell-based, mouse
# Experimental: The culture methods for SMC differentiation are outlined in FIG. 1. Cells were trypsinized and plated in a 10 cm dish in α-MEM containing 7.5% FBS and 1 μmol/L all trans-retinoic acid (Sigma, R2625) at a density of 10,000 cells/cm^2 (day 0). The culture medium was replaced once on day 2. On day 3, RA was removed from the culture medium. On day 4, cells were trypsinized and plated in two 10 cm dishes in the medium containing […] puromycin (Clontech). Except otherwise noted, samples for various analyses were prepared from cells treated with puromycin for two days. During puromycin selection, the medium was replaced every day.
# Western blot analysis was performed as previously described Regan et al., J. Clin Invest. 2000; 106:1139-47. SM-MHC expression was assessed using a rabbit anti-chicken SM-MHC antibody (1:200,000, a gift from Dr. U. Groschel-Stewart). The specificity of this antibody for mouse MHC isoforms has been thoroughly characterized. The antibody was not reactive with nonmuscle MHCs in Western blotting. Immnunocytochemical staining was performed using Vectastain ABC-AP kit (Vector Laboratories). Antibodies and dilutions used were 1:1000 anti-SM α-actin antibody (Sigma), 1:500 anti-SM-MHC antibody, and 1:1000 anti-neuron-specific β-tubulin antibody (TUJ1, Berkeley Antibody Company).
# P19 cells = assay: RA-induced SMC differentiation of parental P19 cells; format: cell-based, mouse; conditions: within 4 days
# Experimental: P19 cells were obtained from American Type Culture Collection (CRL-1825). Cells were maintained in α-minimum essential medium (α-MEM, Sigma, M0644) supplemented with 7.5% fetal bovine serum (FBS), 200 μg/ml L-glutamine and penicillin/streptomycin (Lifetechnologies). For transfection and differentiation induction experiments, P19 cell cultures less than 6 passages from the initial culture obtained from ATCC were used. […] Cells were trypsinized and plated in a 10 cm dish in α-MEM containing 7.5% FBS and 1 μmol/L all trans-retinoic acid (Sigma, R2625) at a density of 10,000 cells/cm^2 (day 0). The culture medium was replaced once on day 2. On day 3, RA was removed from the culture medium. On day 4, cells were trypsinized and plated in two 10 cm dishes in the medium containing 0.5 ng/ml puromycin (Clontech). Except otherwise noted, samples for various analyses were prepared from cells treated with puromycin for two days. During puromycin selection, the medium was replaced every day.
# [1] = RA-treated A404 cells, after 2-days of puromycin treatment
SMILES,"α-actin negative neuron-like cells, fraction of total cell population (A404 cells; by 4 days after RA treatment, no puromycin)","fraction of total A404 cell population stained positively for SM α-actin (A404 cells; by 4 days following RA treatment, no puromycin)",cells estimated to differentiate into SMCs (P19 cells),cells positive for TUJ1 (A404 cells; [1]),fraction of neuron-like cells (A404 cells; [1]),"number of neuronal cells (A404 cells; RA-treated A404 cells, five-days of puromycin treatment)","cells stained positively for both SM α-actin and SM-MHC (A404 cells; RA-treated A404 cells, following 2 to 5-days treatment with puromycin)"
"CC1=C(/C=C/C(C)=C/C=C/C(C)=C/C(=O)O)C(C)(C)CCC1 [RA, all trans-retinoic acid]",10-20%,> 80%,1-5%,–,–,–,–
COc1ccc(C[C@H](N)C(=O)N[C@H]2[C@@H](O)[C@H](n3cnc4c(N(C)C)ncnc43)O[C@@H]2CO)cc1 [puromycin],–,–,–,< 0.1%,5-10%,less than 5%,> 90%
